Reference: patent US8053603B2, “Tetralone-based monoamine reuptake inhibitors” (Sunovion Pharmaceuticals Inc., priority 2006, dated 2011)
Like-named read-outs stand apart in the source and are kept apart here.

What was measured:
Format in all cases: cell-based
[1] = target: T1, recombinant human norepinephrine transporter (Homo sapiens, UniProt P23975); assay: Norepinephrine functional uptake assay for human reuptake transporter; settings: [3H]norepinephrine uptake, HEK293 or MDCK cells expressing human norepinephrine transporter
T1 construct: expressed in transfected cells; host or cells: HEK293 or MDCK
T1 sequence (P23975 whole entry): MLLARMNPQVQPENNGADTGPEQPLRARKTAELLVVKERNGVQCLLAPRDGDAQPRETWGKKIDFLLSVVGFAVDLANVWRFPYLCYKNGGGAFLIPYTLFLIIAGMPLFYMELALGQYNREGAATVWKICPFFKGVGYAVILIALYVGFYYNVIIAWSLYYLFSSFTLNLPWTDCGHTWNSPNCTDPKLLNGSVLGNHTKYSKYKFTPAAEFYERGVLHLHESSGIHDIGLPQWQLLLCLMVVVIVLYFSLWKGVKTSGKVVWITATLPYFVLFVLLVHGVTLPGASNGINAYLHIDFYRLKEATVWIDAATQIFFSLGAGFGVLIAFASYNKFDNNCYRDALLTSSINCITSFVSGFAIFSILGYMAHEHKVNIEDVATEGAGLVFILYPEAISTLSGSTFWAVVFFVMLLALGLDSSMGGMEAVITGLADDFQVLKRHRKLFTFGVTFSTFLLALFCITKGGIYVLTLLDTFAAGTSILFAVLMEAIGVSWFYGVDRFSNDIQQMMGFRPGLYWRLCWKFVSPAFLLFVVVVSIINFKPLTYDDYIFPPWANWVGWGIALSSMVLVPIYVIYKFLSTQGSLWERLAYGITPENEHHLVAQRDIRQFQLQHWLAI
Method: Norepinephrine Functional Uptake Assay for Human Reuptake Transporter
The cells were plated before the assay. Test compound and/or vehicle was preincubated with cells in modified HEPES buffer pH 7.1 or pH 7.4 for 20 minutes at 18 to 25° C. . […] After the cells were washed to remove [^3H]norepinephrine not internalized, the cells were lysed, and the amount of tritium in the cell lysate was measured using a liquid scintillation counter to determine [^3H]norepinephrine uptake. Non-specific binding of tritium was measured in a control reaction containing 10 μM imipramine (or 10 μM nisoxetine), and was subtracted from the counts for assays to correct for non-specific binding of tritium. Reduction of [^3H]norepinephrine uptake by 50 percent or more (≧50%) relative to an uninhibited control reaction indicates significant inhibitory activity.

[2] = target: T2, recombinant human dopamine transporter (Homo sapiens, UniProt Q01959); assay: Dopamine functional uptake assay for human reuptake transporter
T2 construct: expressed in transfected cells; host or cells: CHO-K1 or HEK293
T2 sequence (Q01959 whole entry): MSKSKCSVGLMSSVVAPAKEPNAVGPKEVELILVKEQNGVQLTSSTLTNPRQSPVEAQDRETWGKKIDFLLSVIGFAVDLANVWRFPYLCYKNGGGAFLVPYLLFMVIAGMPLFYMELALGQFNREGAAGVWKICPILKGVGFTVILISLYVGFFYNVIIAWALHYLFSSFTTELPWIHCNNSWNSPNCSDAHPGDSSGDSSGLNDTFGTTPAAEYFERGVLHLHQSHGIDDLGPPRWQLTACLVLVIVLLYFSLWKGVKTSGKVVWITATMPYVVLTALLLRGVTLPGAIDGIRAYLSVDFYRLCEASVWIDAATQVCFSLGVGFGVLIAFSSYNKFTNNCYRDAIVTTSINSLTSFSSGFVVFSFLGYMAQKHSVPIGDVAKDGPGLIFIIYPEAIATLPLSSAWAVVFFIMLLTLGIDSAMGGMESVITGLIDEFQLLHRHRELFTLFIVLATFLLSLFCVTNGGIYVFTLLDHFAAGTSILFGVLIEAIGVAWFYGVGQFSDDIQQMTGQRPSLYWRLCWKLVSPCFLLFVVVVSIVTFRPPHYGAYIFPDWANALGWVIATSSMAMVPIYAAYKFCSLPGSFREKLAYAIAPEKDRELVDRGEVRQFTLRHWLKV
Method: Dopamine Functional Uptake Assay for Human Reuptake Transporter
Either CHO-K1 or HEK293 cells expressing human recombinant dopamine transporter were plated before the assay. Test compound and/or vehicle was preincubated with cells in modified HEPES buffer pH 7.1 or pH 7.4 for 20 minutes at 18 to 25° C. and 50 nM [^3H]dopamine was then added for an additional timed incubation period (10 to 30 minutes). After washing the cells to remove [^3H]dopamine not internalized, the cells were lysed, and the amount of tritium in the lysate was measured using a liquid scintillation counter to determine [^3H]dopamine uptake. Non-specific binding of tritium was measured in a control reaction containing 10 μM nomifensine, and was subtracted from the counts for assays to correct for non-specific binding of tritium. Reduction of [^3H]dopamine uptake by 50 percent or more (≧50%) relative to an uninhibited control reaction indicates significant inhibitory activity.

[3] = target: T3, recombinant human serotonin transporter (Homo sapiens, UniProt P31645); assay: Serotonin functional uptake assay for human reuptake transporter; settings: [3H]serotonin uptake, HEK-293 cells expressing human serotonin transporter; read-out: Human IC50 (nM) SERT
T3 construct: expressed in transfected cells; host or cells: HEK-293
T3 sequence (P31645 whole entry): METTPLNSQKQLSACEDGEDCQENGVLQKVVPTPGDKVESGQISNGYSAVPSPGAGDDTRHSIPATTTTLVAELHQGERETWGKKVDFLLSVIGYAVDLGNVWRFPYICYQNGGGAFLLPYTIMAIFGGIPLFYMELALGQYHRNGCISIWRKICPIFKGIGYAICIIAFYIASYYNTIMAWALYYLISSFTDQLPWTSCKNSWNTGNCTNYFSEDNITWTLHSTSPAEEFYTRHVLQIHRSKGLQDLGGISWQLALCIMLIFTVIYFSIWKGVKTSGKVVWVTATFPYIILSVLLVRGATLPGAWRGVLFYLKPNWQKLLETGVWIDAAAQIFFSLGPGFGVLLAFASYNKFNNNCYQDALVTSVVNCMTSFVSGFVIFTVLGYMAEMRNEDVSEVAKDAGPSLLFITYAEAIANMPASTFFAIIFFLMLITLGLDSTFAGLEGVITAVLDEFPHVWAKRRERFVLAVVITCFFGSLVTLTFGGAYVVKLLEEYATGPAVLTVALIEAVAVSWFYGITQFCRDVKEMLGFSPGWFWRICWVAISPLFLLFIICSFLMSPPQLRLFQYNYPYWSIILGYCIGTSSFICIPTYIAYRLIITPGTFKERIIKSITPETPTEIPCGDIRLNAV
Method: Serotonin Functional Uptake Assay for Human Reuptake Transporter
HEK-293 cells expressing human serotonin transporter were plated before the assay. […] Cells with internalized [^3H]serotonin were washed and the amount of tritium taken into cells is counted using a liquid scintillation counter to determine [^3H]serotonin uptake.

[4] = [3H]dopamine uptake, CHO-K1 or HEK293 cells expressing human dopamine transporter, read-out: Human IC50 (nM) DAT

Row | Structure (SMILES) | IC50 ([1]; Human IC50 (nM) NET) [nM] | IC50 [2, 4] [nM] | IC50 ([1]; read-out: Human IC50 (nM) NET) [nM] | other results
1 | N[C@H]1Cc2ccccc2[C@H](c2ccc(Cl)c(Cl)c2)C1 (single isomer, unassigned) [Compound 6b, [4-(3,4-dichlorophenyl)-1,2,3,4-tetrahydro-naphthalen-2-yl]-amine] | 731 |  |  | IC50 ([2]; Human IC50 (nM) DAT): 408 nM
2 | N[C@H]1Cc2ccccc2[C@H](c2ccc(Cl)c(Cl)c2)C1 (single isomer, unassigned) [Compound 6c, [4-(3,4-dichlorophenyl)-1,2,3,4-tetrahydro-naphthalen-2-yl]-amine] | 855 |  |  | IC50 ([2]; Human IC50 (nM) DAT): 894 nM
3 | N[C@H]1Cc2ccccc2[C@H](c2ccc(Cl)c(Cl)c2)C1 (single isomer, unassigned) [Compound 6d, [4-(3,4-dichlorophenyl)-1,2,3,4-tetrahydro-naphthalen-2-yl]-amine] | 174 |  |  | IC50 ([2]; Human IC50 (nM) DAT): 175 nM
4 | CN[C@H]1Cc2ccccc2[C@H](c2ccc(Cl)c(Cl)c2)C1 (single isomer, unassigned) [Compound 7b, 4-(3,4-dichlorophenyl)-N-methyl-1,2,3,4-tetrahydronaphthalen-2-amine] |  | 62 |  | 
5 | CN[C@H]1Cc2ccccc2[C@H](c2ccc(Cl)c(Cl)c2)C1 (single isomer, unassigned) [Compound 7c, 4-(3,4-dichlorophenyl)-N-methyl-1,2,3,4-tetrahydronaphthalen-2-amine] |  | 281 |  | 
6 | CN[C@H]1Cc2ccccc2[C@H](c2ccc(Cl)c(Cl)c2)C1 (single isomer, unassigned) [Compound 7d, 4-(3,4-dichlorophenyl)-N-methyl-1,2,3,4-tetrahydronaphthalen-2-amine] |  | 72 |  | 
7 | CN(C)[C@H]1Cc2ccccc2[C@H](c2ccc(Cl)c(Cl)c2)C1 (single isomer, unassigned) [Compound 8b, [4-(3,4-dichlorophenyl)-1,2,3,4-tetrahydro-naphthalen-2-yl]-dimethylamine] | 174 | 176 |  | 
8 | CN(C)[C@H]1Cc2ccccc2[C@H](c2ccc(Cl)c(Cl)c2)C1 (single isomer, unassigned) [Compound 8c, [4-(3,4-dichlorophenyl)-1,2,3,4-tetrahydro-naphthalen-2-yl]-dimethylamine] | 164 | 273 |  | 
9 | CN(C)[C@H]1Cc2ccccc2[C@H](c2ccc(Cl)c(Cl)c2)C1 (single isomer, unassigned) [Compound 8d, [4-(3,4-dichlorophenyl)-1,2,3,4-tetrahydro-naphthalen-2-yl]-dimethylamine] | 98 | 319 |  | 
10 | CNC[C@H]1Cc2ccccc2[C@H](c2ccc(Cl)c(Cl)c2)C1 (single isomer, unassigned) [Compound 15b, [4-(3,4-dichlorophenyl)-1,2,3,4-tetrahydro-naphthalen-2-ylmethyl]-methylamine] | 126 | 103 |  | 
11 | CNC[C@H]1Cc2ccccc2[C@H](c2ccc(Cl)c(Cl)c2)C1 (single isomer, unassigned) [Compound 15c, [4-(3,4-dichlorophenyl)-1,2,3,4-tetrahydro-naphthalen-2-ylmethyl]-methylamine] | 210 | 111 |  | 
12 | CNC[C@H]1Cc2ccccc2[C@H](c2ccc(Cl)c(Cl)c2)C1 (single isomer, unassigned) [Compound 15d, [4-(3,4-dichlorophenyl)-1,2,3,4-tetrahydro-naphthalen-2-ylmethyl]-methylamine] | 372 | 484 |  | 
13 | CN(C)CC1Cc2ccccc2C(c2ccc(Cl)c(Cl)c2)C1 (single isomer, unassigned) [Compound 16a, [4-(3,4-dichlorophenyl)-1,2,3,4-tetrahydro-naphthalen-2-ylmethyl]-dimethylamine] | 565 |  |  | 
14 | CN(C)CC1Cc2ccccc2C(c2ccc(Cl)c(Cl)c2)C1 (single isomer, unassigned) [Compound 16b, [4-(3,4-dichlorophenyl)-1,2,3,4-tetrahydro-naphthalen-2-ylmethyl]-dimethylamine] | 309 |  |  | 
15 | CN(C)C1CC(c2ccc(Cl)c(Cl)c2)c2ccccc2C1O (single isomer, unassigned) [Compound 23a, 4-(3,4-dichlorophenyl)-2-(dimethylamino)-1,2,3,4-tetrahydronaphthalen-1-ol] |  | 371 | 710 | IC50 [3]: 117 nM
16 | CN(C)C1CC(c2ccc(Cl)c(Cl)c2)c2ccccc2C1O (single isomer, unassigned) [Compound 23b, 4-(3,4-dichlorophenyl)-2-(dimethylamino)-1,2,3,4-tetrahydronaphthalen-1-ol] | 48 | 67 |  | IC50 [3]: 1300 nM
17 | CN(C)C1CC(c2ccc(Cl)c(Cl)c2)c2ccccc2C1O (single isomer, unassigned) [Compound 23c, 4-(3,4-dichlorophenyl)-2-(dimethylamino)-1,2,3,4-tetrahydronaphthalen-1-ol] | 36 | 21 |  | IC50 [3]: 2360 nM
18 | CN(C)C1CC(c2ccc(Cl)c(Cl)c2)c2ccccc2C1O (single isomer, unassigned) [Compound 23d, 4-(3,4-dichlorophenyl)-2-(dimethylamino)-1,2,3,4-tetrahydronaphthalen-1-ol] | 65 | 48 |  | IC50 [3]: 48 nM
19 | CN[C@H]1Cc2ccc(OC)cc2[C@@H](c2ccc(Cl)c(Cl)c2)C1 (single isomer, unassigned) [Compound 32a.1, 4-(3,4-dichlorophenyl)-6-methoxy-N-methyl-1,2,3,4-tetrahydronaphthalen-2-amine] |  | 1080 | 1210 | IC50 [3]: 162 nM
20 | CN[C@H]1Cc2ccc(OC)cc2[C@@H](c2ccc(Cl)c(Cl)c2)C1 (single isomer, unassigned) [Compound 32a.2, 4-(3,4-dichlorophenyl)-6-methoxy-N-methyl-1,2,3,4-tetrahydronaphthalen-2-amine] |  | 415 | 467 | IC50 [3]: 130 nM
21 | CN[C@H]1Cc2ccc(OC)cc2[C@@H](c2ccc(Cl)c(Cl)c2)C1 (single isomer, unassigned) [Compound 32a.4, 4-(3,4-dichlorophenyl)-6-methoxy-N-methyl-1,2,3,4-tetrahydronaphthalen-2-amine] |  | 1680 | 786 | IC50 [3]: 958 nM
22 | CN[C@H]1CCc2ccccc2[C@H]1c1ccc(Cl)c(Cl)c1 (single isomer, unassigned) [Compound 36a, 1-(3,4-dichlorophenyl)-N-methyl-1,2,3,4-tetrahydronaphthalen-2-amine] |  | 511 | 3450 | 
23 | CN[C@H]1CCc2ccccc2[C@H]1c1ccc(Cl)c(Cl)c1 (single isomer, unassigned) [Compound 36b, 1-(3,4-dichlorophenyl)-N-methyl-1,2,3,4-tetrahydronaphthalen-2-amine] |  |  | 7090 | 
24 | CN[C@H]1CCc2ccccc2[C@H]1c1ccc(Cl)c(Cl)c1 (single isomer, unassigned) [Compound 36c, 1-(3,4-dichlorophenyl)-N-methyl-1,2,3,4-tetrahydronaphthalen-2-amine] |  | 88 | 745 | 
25 | CN[C@H]1CCc2ccccc2[C@H]1c1ccc(Cl)c(Cl)c1 (stereo in doubt) [Compound 36d, 1-(3,4-dichlorophenyl)-N-methyl-1,2,3,4-tetrahydronaphthalen-2-amine] |  | 204 | 1620 | 
26 | N[C@H]1Cc2ccccc2[C@H](c2ccc(Cl)c(Cl)c2)C1 [Compound 6a, [4-(3,4-dichlorophenyl)-1,2,3,4-tetrahydro-naphthalen-2-yl]-amine] |  |  | 124 | IC50 ([2]; read-out: Human IC50 (nM) DAT): 350 nM
27 | CN[C@H]1Cc2ccccc2[C@H](c2ccc(Cl)c(Cl)c2)C1 [Compound 7a, 4-(3,4-dichlorophenyl)-N-methyl-1,2,3,4-tetrahydronaphthalen-2-amine] |  | 114 |  | 
28 | CN(C)[C@H]1Cc2ccccc2[C@H](c2ccc(Cl)c(Cl)c2)C1 [Compound 8a, [4-(3,4-dichlorophenyl)-1,2,3,4-tetrahydro-naphthalen-2-yl]-dimethylamine] |  | 454 | 167 | 
29 | CNC[C@H]1Cc2ccccc2[C@H](c2ccc(Cl)c(Cl)c2)C1 [Compound 15a, [4-(3,4-dichlorophenyl)-1,2,3,4-tetrahydro-naphthalen-2-ylmethyl]-methylamine] |  | 125 | 72 | 
